Measurements: US9809568B2, “Compounds inhibiting leucine-rich repeat kinase enzyme activity” (Merck Sharp & Dohme Corp., priority 2013, dated 2017)

Target: LRRK2(G2019S mutation, GST-LRRK2 (amino acids 970-2527)) (Homo sapiens (Human), UniProt Q5S007, G2019S)
Assay: LRRK2 Km ATP LanthaScreen Assay
Type: biochemical
Settings: Km ATP LanthaScreen TR-FRET; G2019S LRRK2, LRRKtide substrate; mean IC50 of several tests
Source text: Unless otherwise noted, all LRRK2 IC50 data presented in tables refers to the LRRK2 Km ATP LanthaScreen™ Assay that is described in the Biological Assay section.
The data presented for the Km ATP LanthaScreen™ Assay represents mean IC50 values based on several test results and may have reasonable deviations depending on the specific conditions and reagents used. Reagents for the LRRK2 Km ATP LanthaScreen™ Assay were purchased from Life Technologies Corporation.
LRRK2 Km ATP LanthaScreen™ Assay
• a) 400 nl of a 1:2.15 serial dilution of test compound (98 μM top assay concentration) is spotted via Labcyte Echo to certain wells in a 384 well black, untreated plate. Control wells contain 400 nl of either DMSO or 400 nl of a known inhibitor in DMSO. • b) 10 μl of a 2.5 nM LRRK2(G2019S mutation, GST-LRRK2 (amino acids 970-2527)) enzyme solution in 1× assay buffer (50 mM Tris pH 8.5, 10 mM MgCl2, 0.01% Brij-35, 1mM EGTA, 2 mM DTT, 0.05 mM NaVO4) is added to all wells. • c) A 30 minute room temperature incubation is followed by addition of 10 μl of 800 nM fluorescein labeled LRRKtide peptide substrate and 186 μM ATP solution in 1× assay buffer to all wells. • d) After a 60 minute room temperature incubation, 20 μl of TR-FRET Dilution Buffer (Invitrogen PV3756B) containing 4 nM Tb-labeled anti-phospho LRRKtide antibody and 20 mM EDTA is added to all wells. • e) Plates are incubated at room temperature for 1 hour and read on an Envision™ multi-mode plate reader with LanthaScreen™ settings. Results are analysed using Assay Data Analyzer.

Chain of LRRK2(G2019S mutation, GST-LRRK2 (amino acids 970-2527)) (Q5S007 970-2527 G2019S): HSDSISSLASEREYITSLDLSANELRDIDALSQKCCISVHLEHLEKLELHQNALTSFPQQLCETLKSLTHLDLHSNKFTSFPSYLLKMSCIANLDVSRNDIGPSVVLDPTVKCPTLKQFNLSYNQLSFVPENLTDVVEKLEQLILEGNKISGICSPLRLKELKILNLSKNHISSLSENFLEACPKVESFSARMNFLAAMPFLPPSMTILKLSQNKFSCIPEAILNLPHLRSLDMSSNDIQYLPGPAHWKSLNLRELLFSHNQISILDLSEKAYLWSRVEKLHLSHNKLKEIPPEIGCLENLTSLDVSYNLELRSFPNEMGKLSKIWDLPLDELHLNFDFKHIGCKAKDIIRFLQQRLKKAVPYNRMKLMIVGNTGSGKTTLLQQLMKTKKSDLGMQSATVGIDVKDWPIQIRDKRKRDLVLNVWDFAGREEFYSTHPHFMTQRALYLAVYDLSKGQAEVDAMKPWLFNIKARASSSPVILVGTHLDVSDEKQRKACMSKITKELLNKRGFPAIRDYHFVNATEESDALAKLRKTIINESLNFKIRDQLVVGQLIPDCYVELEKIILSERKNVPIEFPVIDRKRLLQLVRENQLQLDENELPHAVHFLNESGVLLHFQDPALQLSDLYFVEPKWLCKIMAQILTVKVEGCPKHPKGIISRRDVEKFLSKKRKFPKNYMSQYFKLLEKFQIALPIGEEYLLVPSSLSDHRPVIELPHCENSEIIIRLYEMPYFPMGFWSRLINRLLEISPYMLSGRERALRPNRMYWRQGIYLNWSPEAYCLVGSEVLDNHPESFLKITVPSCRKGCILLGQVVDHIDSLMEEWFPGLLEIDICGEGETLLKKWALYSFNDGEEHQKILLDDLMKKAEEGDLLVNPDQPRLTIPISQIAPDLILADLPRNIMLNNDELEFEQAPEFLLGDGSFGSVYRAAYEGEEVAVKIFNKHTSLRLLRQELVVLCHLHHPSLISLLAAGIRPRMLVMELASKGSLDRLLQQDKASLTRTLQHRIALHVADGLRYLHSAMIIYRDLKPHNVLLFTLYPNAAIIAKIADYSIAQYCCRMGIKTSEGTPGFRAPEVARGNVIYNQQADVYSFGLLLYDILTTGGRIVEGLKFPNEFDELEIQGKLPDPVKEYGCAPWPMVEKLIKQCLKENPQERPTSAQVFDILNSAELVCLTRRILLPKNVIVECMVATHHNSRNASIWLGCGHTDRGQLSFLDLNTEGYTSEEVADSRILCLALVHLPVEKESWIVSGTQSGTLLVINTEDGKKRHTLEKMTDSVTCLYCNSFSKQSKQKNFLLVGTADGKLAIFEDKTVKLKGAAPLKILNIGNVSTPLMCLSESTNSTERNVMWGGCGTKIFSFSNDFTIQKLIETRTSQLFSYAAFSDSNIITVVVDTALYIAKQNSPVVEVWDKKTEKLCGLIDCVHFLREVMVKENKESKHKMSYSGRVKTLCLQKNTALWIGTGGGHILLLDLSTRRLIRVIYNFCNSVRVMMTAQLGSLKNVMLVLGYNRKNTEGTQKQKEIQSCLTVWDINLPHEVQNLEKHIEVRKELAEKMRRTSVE

Row | Compound | IC50
1 | Cc1cc(-c2cnn(C)c2)cc2c(-c3ccnc(N4CC[C@@H](F)C4)c3)n[nH]c12 [Example 12] | 380 nM
2 | CC(C)Oc1cc(F)c2[nH]nc(-c3ccnc(N4CCOCC4)c3)c2c1 [Example 4] | 12 nM
3 | Fc1cc(-c2cnccn2)cc2c(-c3ccnc(N4CCOCC4)c3)n[nH]c12 [Example 6] | 58 nM
4 | Cn1cc(-c2cc(F)c3[nH]nc(-c4ccnc(N5CC(F)C5)c4)c3c2)cn1 [Example 10] | 8.2 nM
5 | Cc1cc(-c2cnn(C)c2)cc2c(-c3ccnc(N4CCOCC4)c3)n[nH]c12 [Example 7] | 199 nM
6 | Cc1cc(-c2cnn(C)c2)cc2c(-c3ccnc(N4CCN(S(C)(=O)=O)CC4)c3)n[nH]c12 [Example 11] | 218 nM
7 | Cn1cc(-c2cc(Cl)c3[nH]nc(-c4ccnc(N5CCOCC5)c4)c3c2)cn1 [Example 8] | 309 nM
